Where a name gives a salt, the structure may show the parent alone.
Key:
[1] = test system: A549 cells; assay: Cytotoxicity assay (AlamarBlue); details: read-out: CC50 (μM), cytotoxic concentration 50%; A549 cell line, 48 h
Method: Cytotoxicity Assay. The cytotoxicity of the compounds was analyzed by commercial kit AlamarBlue® (Invitrogen, Ref. DAL1025). A549 cells at a density of 5×10^3 cells per well in 96-well plates were seeded. […] Cells were then incubated at 37° C. for 48 h following the kit protocol. The cytotoxic concentration 50 (CC50) value was obtained using the statistical package GraphPad Prism. This assay was performed in duplicate.

[2] = test system: HAdV5-GFP; assay: Plaque assay (inhibition of HAdV plaque formation); type: cell-based, HAdV-5; details: for Selectivity index (SI): ratio of CC50 to IC50 in plaque assay; for inhibition at 10 µM: read-out: Plaque Assay (%) Inhibition (10 μM); for IC50: read-out: Plaque Assay IC50 (μM), HAdV5-GFP, low MOI, 293β5 cell line; for EC50: read-out: EC50 (plaque assay)
Method: Plaque Assay. […] When cells reached 80-90% confluency, they were infected with HAdV5-GFP (0.06 vp/cell) and rocked for 2 h at 37° C. After the incubation the inoculum was removed, and the cells were washed once with PBS.
Plaque Assay. Compounds were tested using low MOI infections (0.06 vp/cell) and at concentrations of 10 μM and in a dose-response assay ranging from 10 to 0.3 μM in a plaque assay. […] When cells reached 80-90% confluency, they were infected with HAdV5-GFP (0.06 vp/cell) and rocked for 2 h at 37° C. After the incubation the inoculum was removed, and the cells were washed once with PBS. […] The mixture also contained the compounds in concentrations ranging from 10 to 0.3 μM.

Row | SMILES | inhibition at 10 µM [2] | also measured
1 | O=C(Nc1ccc(NCc2cc(F)cc(C(F)(F)F)c2)cc1Cl)c1cc(Cl)ccc1O [Compound 106, 5-Chloro-N-(2-chloro-4-((3-fluoro-5-(trifluoromethyl)benzyl)amino)phenyl)-2-hydroxybenzamide] | 100% | CC50 [1]: 30.9 ± 4.8 µM; Selectivity index (SI) [2]: 26.7; IC50 [2]: 1.16 ± 0.13 µM
2 | O=C(Nc1ccc(NC2CCCC2)cc1F)c1cc(Cl)ccc1O [Compound 142, 5-Chloro-N-(4-(cyclopentylamino)-2-fluorophenyl)-2-hydroxybenzamide] | 98.7 ± 0.4% | CC50 [1]: 51 ± 13.3 µM; Selectivity index (SI) [2]: 49.1; IC50 [2]: 1.04 µM
3 | O=C(Nc1ccc(N(CCCO)CCCO)cc1Cl)c1cc(Cl)ccc1O [Compound 121, N-(4-(Bis(3-hydroxypropyl)amino)-2-chlorophenyl)-5-chloro-2-hydroxybenzamide] | 35 ± 7.1% | CC50 [1]: 114 ± 9.2 µM; Plaque Assay (%) Inhibition (10 μM) ([2]; {}): inactive
4 | O=C(c1cc(Cl)ccc1O)N1CCCCC1 [Compound 171] | – | Plaque Assay (%) Inhibition (10 μM) ([2]; HAdV5-GFP, 10 μM, low MOI, 293β5 cell line): 0.00 ± 0.00%
5 | O=C(Nc1ccc(NCc2cc(Cl)cc(C(F)(F)F)c2)cc1Cl)c1cc(Cl)ccc1O [Compound 105, 5-Chloro-N-(2-chloro-4-((3-chloro-5-(trifluoromethyl)benzyl)amino)phenyl)-2-hydroxybenzamide] | 99.3 ± 1% | CC50 [1]: 30.9 ± 0.8 µM; Selectivity index (SI) [2]: 17.3; IC50 [2]: 1.79 ± 0.16 µM
6 | O=C(NCc1ccc(F)cc1F)c1cc(Cl)ccc1O [Compound 33, 5-Chloro-N-(2,4-difluorobenzyl)-2-hydroxybenzamide] | 74.7 ± 6.9% | –
7 | C[C@@H](NC(=O)c1cc(Cl)ccc1O)c1ccccc1 [Compound 46, (R)-5-Chloro-2-hydroxy-N-(1-phenylethyl)benzamide] | 100% | CC50 [1]: 84.6 ± 20.5 µM
8 | O=C(Cc1cc(Cl)ccc1O)Nc1ccc([N+](=O)[O-])cc1Cl [Compound 54, 2-(5-Chloro-2-hydroxyphenyl)-N-(2-chloro-4-nitrophenyl)acetamide] | 0% | –
9 | O=C(NCc1cccc(Cl)c1)c1cc(Cl)ccc1O [Compound 39, 5-Chloro-N-(3-chlorobenzyl)-2-hydroxybenzamide] | 72 ± 1.5% | –
10 | O=C(Nc1ccc(NC2CCCC2)cc1Cl)c1cccc(Cl)c1 [Compound 137, 3-Chloro-N-(2-chloro-4-(cyclopentylamino)phenyl)benzamide] | 82.9% | –
11 | CC(=O)Nc1ccc(NC(=O)c2cc(Cl)ccc2O)c(Cl)c1 [Compound 77, N-(4-Acetylamino-2-chlorophenyl)-5-chloro-2-hydroxybenzamide] | 0% | –
12 | CN1CCC(CNc2ccc(NC(=O)c3cc(Cl)ccc3O)c(Cl)c2)CC1 [Compound 128, 5-Chloro-N-(2-chloro-4-(((1-methylpiperidin-4-yl)methyl)amino)phenyl)-2-hydroxybenzamide] | 0% | –
13 | NCCNc1ccc(NC(=O)c2cc(Cl)ccc2O)c(Cl)c1 [Compound 123, N-(4-((2-Aminoethyl)amino)-2-chlorophenyl)-5-chloro-2-hydroxybenzamide hydrochloride] | 19.4 ± 12.2% | –
14 | CN1CCN(CCNC(=O)c2cc(Cl)ccc2O)CC1 [Compound 167, 5-Chloro-2-hydroxy-N-(2-(4-methylpiperazin-1-yl)ethyl)benzamide] | 0% | –
15 | O=C(Nc1ccc(NC2CCNCC2)cc1Cl)c1cc(Cl)ccc1O [Compound 125, 5-Chloro-N-(2-chloro-4-(piperidin-4-ylamino)phenyl)-2-hydroxybenzamide hydrochloride] | 39.7 ± 13.5% | –
16 | CC(=O)N1CCN(C(=O)c2cc(Cl)ccc2O)CC1 [Compound 172, 1-(4-(5-Chloro-2-hydroxybenzoyl)piperazin-1-yl)ethanone] | 0% | –
17 | O=C(NCCN1CCOCC1)c1cc(Cl)ccc1O [Compound 168, 5-Chloro-2-hydroxy-N-(2-morpholinoethyl)benzamide] | 0% | EC50 [2]: 3.73 µM
18 | CC(C)C[C@H](NC(=O)c1cc(Cl)ccc1O)C(=O)Nc1ccc([N+](=O)[O-])cc1Cl [Compound 61, (S)-5-Chloro-N-(1-((2-chloro-4-nitrophenyl)amino)-4-methyl-1-oxopentan-2-yl)-2-hydroxybenzamide] | 17.4 ± 12.3% | –
19 | Nc1ccc(NC(=O)c2cc(Cl)ccc2O)c(Cl)c1 [Compound 76, N-(4-Amino-2-chlorophenyl)-5-chloro-2-hydroxybenzamide] | 0% | –
20 | C[C@H](NC(=O)c1cc(Cl)ccc1O)C1CCCCC1 [Compound 162, (S)-5-chloro-N-(1-cyclohexylethyl)-2-hydroxybenzamide] | 100% | EC50 [2]: 0.51 µM

Row | SMILES | inhibition at 10 µM [2] | also measured
21 | O=C(Nc1ccc(NCC2CCNCC2)cc1Cl)c1cc(Cl)ccc1O [Compound 127, 5-Chloro-N-(2-chloro-4-((piperidin-4-ylmethyl)amino)phenyl)-2-hydroxybenzamide] | 20.6 ± 10.3% | –
22 | O=C(NCC1CCOCC1)c1cc(Cl)ccc1O [Compound 163, 5-Chloro-2-hydroxy-N-((tetrahydro-2H-pyran-4-yl)methyl)benzamide] | 0% | –
23 | O=C(NCCC1CCCCC1)c1cc(Cl)ccc1O [Compound 165, 5-Chloro-N-(2-cyclohexylethyl)-2-hydroxybenzamide] | – | EC50 [2]: 1 µM; IC50 [2]: 1 ± 0.1 µM
24 | O=C(Nc1ccc([N+](=O)[O-])c(Cl)c1)c1cc(Cl)ccc1O [Compound 10, 5-Chloro-N-(3-chloro-4-nitrophenyl)-2-hydroxybenzamide] | 100% | IC50 [2]: 1 µM
25 | CN(Cc1ccc(F)cc1)C(=O)c1cc(Cl)ccc1O [Compound 41, 5-Chloro-N-(4-fluorobenzyl)-2-hydroxy-N-methylbenzamide] | 0% | –
26 | O=C(NCc1ccc(F)c(F)c1)c1cc(Cl)ccc1O [Compound 34, 5-Chloro-N-(3,4-difluorobenzyl)-2-hydroxybenzamide] | 37.2 ± 23.4% | –
27 | CN1CCC(Oc2ccc(Cl)cc2C(=O)Nc2ccc(NC3CCCC3)cc2Cl)CC1 [Compound 139, 5-Chloro-N-(2-chloro-4-(cyclopentylamino)phenyl)-2-((1-methylpiperidin-4-yl)oxy)benzamide] | 0% | –
28 | CS(=O)(=O)Nc1ccc(Cl)cc1C(=O)N[C@@H](Cc1ccccc1)C(=O)Nc1ccc([N+](=O)[O-])cc1Cl [Compound 71, (S)-5-Chloro-N-(1-((2-chloro-4-nitrophenyl)amino)-1-oxo-3-phenylpropan-2-yl)-2-(methylsulfonamido)benzamide] | 88.9 ± 15.7% | –
29 | COc1ccc(Cl)cc1C(=O)Nc1ccc(NC2CCCC2)cc1Cl [Compound 138, 5-Chloro-N-(2-chloro-4-(cyclopentylamino)phenyl)-2-methoxybenzamide] | 78.9% | –
30 | O=C(NCc1ccccc1)c1cc(Cl)ccc1O [Compound 45, N-Benzyl-5-chloro-2-hydroxybenzamide] | 12.7 ± 2.9% | –
31 | CN1CCN(C(=O)c2cc(Cl)ccc2O)CC1 [Compound 173, (5-Chloro-2-hydroxyphenyl)(4-methylpiperazin-1-yl)methanone] | 0% | –
32 | CSCC[C@H](NC(=O)c1cc(Cl)ccc1O)C(=O)Nc1ccc([N+](=O)[O-])cc1Cl [Compound 63, (S)-5-Chloro-N-(1-((2-chloro-4-nitrophenyl)amino)-4-(methylthio)-1-oxobutan-2-yl)-2-hydroxybenzamide] | 34.8 ± 16.9% | –
33 | COc1ccc([C@@H](C)NC(=O)c2cc(Cl)ccc2O)cc1 [Compound 50, (R)-5-Chloro-2-hydroxy-N-(1-(4-methoxyphenyl)ethyl)benzamide] | 33.5 ± 14.8% | –
34 | O=C(NCc1ccc(F)cc1)c1cc(Cl)ccc1O [Compound 40, 5-Chloro-N-(4-fluorobenzyl)-2-hydroxybenzamide] | 72 ± 3% | –
35 | O=C(NC1CCOCC1)c1cc(Cl)ccc1O [Compound 159, 5-Chloro-2-hydroxy-N-(tetrahydro-2H-pyran-4-yl)benzamide] | 0% | –
36 | O=C(Nc1ccc(NC2CCCC2)cc1Cl)c1ccccc1O [Compound 135, N-(2-Chloro-4-(cyclopentylamino)phenyl)-2-hydroxybenzamide] | 77.5% | –
37 | O=C(NC1CCCCCC1)c1cc(Cl)ccc1O [Compound 158, 5-Chloro-N-cycloheptyl-2-hydroxybenzamide] | – | EC50 [2]: 4.7 µM
38 | O=C(Cc1cc(Cl)ccc1O)Nc1ccc(NC2CCCC2)cc1Cl [Compound 146, 2-(5-Chloro-2-hydroxyphenyl)-N-(2-chloro-4-(cyclopentylamino)phenyl)acetamide] | 85.8 ± 5.8% | –
39 | CC(C)[C@H](NC(=O)c1cc(Cl)ccc1O)C(=O)Nc1ccc(C(F)(F)F)cc1Cl [Compound 66, (S)-5-Chloro-N-(1-((2-chloro-4-(trifluoromethyl)phenyl)amino)-3-methyl-1-oxobutan-2-yl)-2-hydroxybenzamide] | 24.8 ± 12.3% | –
40 | O=C(Nc1ccc(NCCN2CCOCC2)cc1Cl)c1cc(Cl)ccc1O [Compound 129, 5-Chloro-N-(2-chloro-4-((2-morpholinoethyl)amino)phenyl)-2-hydroxybenzamide] | 1.4 ± 12.3% | –
